Experimental data taken from article PMC10729961, “Putative purine nucleoside interacting residues in the malaria parasite purine uptake transporter PfENT1 are critical for transporter function” (PLOS ONE, 2023).

Assays:
Type in all cases: cell-based
[1] = system: purine auxotrophic yeast (ade2Δ, fui1Δ); test: [3H]uridine uptake assay, competition with cold adenosine; settings: ade2Δ strain; cold adenosine vs [3H]uridine uptake, 15 min
Method: The radiolabeled uptake assay measures the ability of an unlabeled purine or pyrimidine substrate to inhibit the uptake of radiolabeled substrate into yeast via PfENT1 as previously described. Yeast strains containing PfENT1 (mutant or WT) were grown overnight in SDM media to a final OD600 between 0.2 and 0.5. Purine auxotrophic yeast used as a negative control were grown in YPD media. Yeast were spun down and washed three times with 15 mL phosphate buffered saline (PBS; 137 mM NaCl, 2.7 mM KCl, 10 mM KH2PO4, 10 mM Na2HPO4, pH 7.4). The final volume of yeast in PBS varied but it was diluted to a final OD600 = 0.2. […] For determination of minimal and maximal uptake, yeast strains were incubated without radioactivity or with radioactivity but no cold substrate competition, respectively. […] The amount of radioactivity in each well was measured by liquid scintillation counting using a 1450 MicroBeta TriLux (Perkin Elmer). The counts per minute (cpm) were recorded and technical triplicates were averaged. IC50 values were calculated, and statistical analysis was performed using GraphPad/Prism9 software. […]
Statistical significance was calculated using one-way analysis of variance (ANOVA) with GraphPad/Prism9 software. IC50 values were calculated using the non-linear regression dose-response inhibition log(inhibitor) vs normalized response program. […]

[2] = system: yeast expressing L50C PfENT1; test: 24-h adenosine-dependent growth assay; settings: for Avg. Doubling time (h) Adenosine growth assay 1 mM: 1 mM adenosine sole purine source; for Avg. Doubling time (h) Adenosine growth assay 1 mM / Avg. Doubling time (h) Adenosine growth assay 2 mM: 24 h, mean±SEM; for Avg. Doubling time (h) Adenosine growth assay 2 mM: 2 mM adenosine sole purine source
Method: (§1) The Bioscreen C (Model #: 61400PRO) machine was used to measure proliferation of yeast expressing either wild type or mutant PfENT1 in 24-h assays. Yeast strains were grown overnight in SDM media plus 1 mM adenine. Yeast were spun down and resuspended in sterile water. Yeast were added into wells of honeycomb plates specific for the Bioscreen C (Fisher Scientific Cat No. #NC9976780) to achieve a final OD600 of 0.05 in the total volume of 150 μl per well of yeast and media. […] Each trial contained technical triplicates of every sample. The honeycomb plates were placed in the Bioscreen C where they were shaken continuously on high for 24-h at 30°C. OD600 was measured every 15 min.
(§2) For calculating the doubling time, the formula used was: Dt=ln(2)/kwherek=thegrowthrate
(§3) The k was calculated in Excel using the OD600 values in the growth curve that represented exponential growth (OD600 between 0.2 and 0.6). Alternatively, this formula can also be used: Dt=ln(2)/([ln(OD2)−ln(OD1)]/t2−t1)

[3] = system: yeast expressing I137C PfENT1; test: 24-h adenosine-dependent growth assay; settings: mean±SEM
Method: as §1, §2, §3

[4] = system: yeast expressing T136C PfENT1; test: 24-h adenosine-dependent growth assay; settings: mean±SEM
Method: as §1, §2, §3

[5] = system: yeast expressing A134C PfENT1; test: 24-h adenosine-dependent growth assay; settings: mean±SEM
Method: as §1, §2, §3

[6] = system: yeast expressing S48C PfENT1; test: 24-h adenosine-dependent growth assay; settings: mean±SEM
Method: as §1, §2, §3

[7] = system: yeast expressing V52C PfENT1; test: 24-h adenosine-dependent growth assay; settings: mean±SEM
Method: as §1, §2, §3

[8] = system: yeast expressing S49C PfENT1; test: 24-h adenosine-dependent growth assay; settings: mean±SEM
Method: as §1, §2, §3

[9] = system: yeast expressing L289C PfENT1; test: 24-h adenosine-dependent growth assay; settings: mean±SEM
Method: as §1, §2, §3

[10] = system: yeast expressing F286C PfENT1; test: 24-h adenosine-dependent growth assay
Method: as §1, §2, §3

[11] = system: yeast expressing WT PfENT1; test: 24-h adenosine-dependent growth assay; settings: mean±SEM; for Avg. Doubling time (h) Adenosine growth assay 1 mM: 1 mM adenosine sole purine source; for Avg. Doubling time (h) Adenosine growth assay 2 mM: 2 mM adenosine sole purine source
Method: as §1, §2, §3

[12] = system: yeast expressing F288C PfENT1; test: 24-h adenosine-dependent growth assay; settings: mean±SEM
Method: as §1, §2, §3

[13] = system: yeast expressing N51C PfENT1; test: 24-h adenosine-dependent growth assay; settings: mean±SEM
Method: as §1, §2, §3

[14] = system: yeast expressing R291C PfENT1; test: 24-h adenosine-dependent growth assay; design: key: Mutant strains that did not grow are indicated by (ng, no growth)
Method: as §1, §2, §3

[15] = system: yeast expressing Q135C PfENT1; test: 24-h adenosine-dependent growth assay; design: key: Mutant strains that did not grow are indicated by (ng, no growth)
Method: as §1, §2, §3

[16] = system: yeast expressing S290C PfENT1; test: 24-h adenosine-dependent growth assay; design: key: Mutant strains that did not grow are indicated by (ng, no growth)
Method: as §1, §2, §3

[17] = system: purine auxotrophic yeast (ade2Δ, fui1Δ); test: 24-h adenosine-dependent growth assay; design: key: Mutant strains that did not grow are indicated by (ng, no growth); settings: ade2Δ strain
Method: as §1, §2, §3

[18] = system: yeast expressing W53C PfENT1; test: 24-h adenosine-dependent growth assay; design: key: Mutant strains that did not grow are indicated by (ng, no growth)
Method: as §1, §2, §3

[19] = system: yeast expressing D287C PfENT1; test: 24-h adenosine-dependent growth assay; design: key: Mutant strains that did not grow are indicated by (ng, no growth)
Method: as §1, §2, §3

[20] = 1 mM adenosine sole purine source
[21] = 2 mM adenosine sole purine source

Nc1ncnc2c1ncn2[C@@H]1O[C@H](CO)[C@@H](O)[C@H]1O [Adenosine, adenosine]
Average IC50 (μM) Adenosine [1]: no uptake | Avg. Doubling time (h) Adenosine growth assay 1 mM [2]: 5.83 ± 0.47 h | Avg. Doubling time (h) Adenosine growth assay 1 mM ([2]; listed as adenosine): 5.8 h | Avg. Doubling time (h) Adenosine growth assay 2 mM [2]: 7.16 ± 1.21 h | Avg. Doubling time (h) Adenosine growth assay 2 mM ([2]; listed as adenosine): 7.2 h | increase of doubling time compared to WT PfENT1 control ([2]; in both 1 mM and 2 mM adenosine): 1.9 fold | Avg. Doubling time (h) Adenosine growth assay 1 mM [3, 20]: 3.99 ± 0.50 h | Avg. Doubling time (h) Adenosine growth assay 2 mM [3, 21]: 3.5 ± 0.16 h | Avg. Doubling time (h) Adenosine growth assay 1 mM [4, 20]: 3.12 ± 0.27 h | Avg. Doubling time (h) Adenosine growth assay 2 mM [4, 21]: 3.06 ± 0.09 h | Avg. Doubling time (h) Adenosine growth assay 1 mM [5, 20]: 4.42 ± 0.25 h | Avg. Doubling time (h) Adenosine growth assay 2 mM [5, 21]: 4.09 ± 0.24 h | Avg. Doubling time (h) Adenosine growth assay 1 mM [6, 20]: 3.77 ± 0.17 h | Avg. Doubling time (h) Adenosine growth assay 2 mM [6, 21]: 3.68 ± 0.42 h | Avg. Doubling time (h) Adenosine growth assay 1 mM [7, 20]: 4.20 ± 0.23 h | Avg. Doubling time (h) Adenosine growth assay 2 mM [7, 21]: 3.78 ± 0.29 h | Avg. Doubling time (h) Adenosine growth assay 1 mM [8, 20]: 3.06 ± 0.28 h | Avg. Doubling time (h) Adenosine growth assay 2 mM [8, 21]: 2.99 ± 0.16 h | Avg. Doubling time (h) Adenosine growth assay 1 mM [9, 20]: 3.08 ± 0.25 h | Avg. Doubling time (h) Adenosine growth assay 2 mM [9, 21]: 3.12 ± 0.33 h | Avg. Doubling time (h) Adenosine growth assay 1 mM [10, 20]: slow growth | Avg. Doubling time (h) Adenosine growth assay 2 mM [10, 21]: slow growth | Avg. Doubling time (h) Adenosine growth assay 1 mM [11]: 3.13 ± 0.36 h | Avg. Doubling time (h) Adenosine growth assay 1 mM ([11]; listed as adenosine): 3.1 h | Avg. Doubling time (h) Adenosine growth assay 2 mM [11]: 3.72 ± 0.21 h | Avg. Doubling time (h) Adenosine growth assay 2 mM ([11]; listed as adenosine): 3.7 h | Avg. Doubling time (h) Adenosine growth assay 1 mM [12, 20]: 3.61 ± 0.60 h | Avg. Doubling time (h) Adenosine growth assay 2 mM [12, 21]: 3.57 ± 0.53 h | Avg. Doubling time (h) Adenosine growth assay 1 mM [13, 20]: 3.46 ± 0.26 h | Avg. Doubling time (h) Adenosine growth assay 2 mM [13, 21]: 3.89 ± 0.41 h | Avg. Doubling time (h) Adenosine growth assay 1 mM [14, 20]: ng | Avg. Doubling time (h) Adenosine growth assay 2 mM [14, 21]: ng | Avg. Doubling time (h) Adenosine growth assay 1 mM [15, 20]: ng | Avg. Doubling time (h) Adenosine growth assay 2 mM [15, 21]: ng | Avg. Doubling time (h) Adenosine growth assay 1 mM [16, 20]: ng | Avg. Doubling time (h) Adenosine growth assay 2 mM [16, 21]: ng | Avg. Doubling time (h) Adenosine growth assay 1 mM ([17]; 1 mM adenosine sole purine source, mean±SEM): ng | Avg. Doubling time (h) Adenosine growth assay 2 mM [17, 21]: ng | Avg. Doubling time (h) Adenosine growth assay 1 mM [18, 20]: ng | Avg. Doubling time (h) Adenosine growth assay 2 mM [18, 21]: ng | Avg. Doubling time (h) Adenosine growth assay 1 mM [19, 20]: ng | Avg. Doubling time (h) Adenosine growth assay 2 mM [19, 21]: ng
